Assay [1] deals with GABAA receptors. Conditions: cited from earlier work.
Assay [2] deals with TUNEL-positive RGCs. The assay can be described thus: Rat in vivo OHT model, TUNEL staining. Conditions: OHT eyes, intravitreal, three weeks after bead injection; single values. The procedure:
Example 7. Rat in vivo OHT model induced by intracameral injection of microbeads—For induction of ocular hypertension (OHT) in vivo, sterile 6 μm polystyrene microbeads were injected into the anterior chamber of the left eye of each animal using a single-step, sclero-corneal tunnel approach with a 35G nanoneedle (FIG. 4A). […] After stabilization of elevated IOP, animals were randomly divided into 3 groups (non-treated OHT, AlloP injection, and ent-AlloP injection). AlloP and ent-AlloP were administered as a one-time intravitreal injection one week following bead injection. Non-treated OHT animals received sterile vehicle intravitreally. […]
Apoptosis—To visualize apoptotic cells, a DeadEnd™ Colorimetric TUNEL (TdT-mediated dUTP Nick-End Labeling) System (Promega, Madison, WI) was used according to the manufacturer's instructions. […] After the length of each retinal section was measured (Image-Pro Plus software), the cells were counted in the whole section length and the number of cells was normalized per 200 μm of retinal section. The number of apoptotic cells was evaluated by Dunnett's multiple comparison test to determine changes in the density of apoptotic cells among experimental retinas treated with 1 μM AlloP or 1 μM ent-AlloP at 75 mmHg and control retinas incubated with aCSF at 75 mmHg. […]

Assay [3] has as its system optic nerve axons. Nature of the assay: Rat in vivo OHT model, density of optic nerve axons. Conditions: OHT eyes, intravitreal, 3 weeks after microbead injection; single values. The procedure: Example 7. Rat in vivo OHT model induced by intracameral injection of microbeads—For induction of ocular hypertension (OHT) in vivo, sterile 6 μm polystyrene microbeads were injected into the anterior chamber of the left eye of each animal using a single-step, sclero-corneal tunnel approach with a 35G nanoneedle (FIG. 4A). […] After stabilization of elevated IOP, animals were randomly divided into 3 groups (non-treated OHT, AlloP injection, and ent-AlloP injection). AlloP and ent-AlloP were administered as a one-time intravitreal injection one week following bead injection. Non-treated OHT animals received sterile vehicle intravitreally. As a further control, vehicle was intravitreally injected 7 days after intracameral administration of 10 μl of PBS. Three weeks after bead injections, IOP was 26.7±3.7 mmHg in non-treated OHT eyes compared to 9.9±0.9 mmHg in control eyes.
Example 9. RGC survival by neurosteroids during IOP elevation—In whole mounted retinas, glaucomatous damage was visible as reduced numbers of cells that were positive for NeuN three weeks after microbead injection in non-treated OHT eyes compared with control eyes (FIG. 4J, 4K). […] In sections of optic nerves stained with 2% toluidine blue, axonal loss was detected 3 weeks after microbead injection in non-treated OHT eyes compared with control eyes (FIG. 4O, 4p). […]

Where “and” joins values, the source holds several entries; their conditions need not be identical. Equal values may be shown once.

In the case of `CC(=O)[C@H]1CC[C@H]2[C@@H]3CC[C@H]4C[C@H](O)CC[C@]4(C)[C@H]3CC[C@]12C` [AlloP, allopregnanolone], the “action on GABAA receptors” value in assay [1] is recorded as “strong enhancer”. Also, the “TUNEL staining (FIG. 4I), number of TUNEL-positive RGCs, individual 1-5” value in assay [2] is 1 per 200 μm of retinal sections (2×) and 0 per 200 μm of retinal sections (3×). The “Density of axons in ONs, individual 1-5” value in assay [3] was 33 Axons × 10000/square mm (2×) and 27 Axons × 10000/square mm and 32 Axons × 10000/square mm and 29 Axons × 10000/square mm.

Take `CC(=O)[C@@H]1CC[C@@H]2[C@H]3CC[C@@H]4C[C@@H](O)CC[C@@]4(C)[C@@H]3CC[C@]21C` [ent-AlloP, ent-allopregnanolone]: the “action on GABAA receptors” value in assay [1] is on record as “weak actions”. Also, the “TUNEL staining (FIG. 4I), number of TUNEL-positive RGCs, individual 1-5” value in assay [2] was 1 per 200 μm of retinal sections (2×) and 0 per 200 μm of retinal sections (3×). Further, the “Density of axons in ONs, individual 1-5” value in assay [3] was 31 Axons × 10000/square mm and 33 Axons × 10000/square mm and 32 Axons × 10000/square mm and 29 Axons × 10000/square mm and 27 Axons × 10000/square mm.

These data come from US20240041898A9, “NEUROSTEROIDS AND ENANTIOMERS THEREOF FOR THE PREVENTION AND TREATMENT OF NEURODEGENERATIVE CONDITIONS” (priority 2019, published 2024).
